Activity calls are given as the source filed them. The calls are words filed in the database; no cut-off is given here.
How the values were obtained:
[1] = target: Alpha-glucosidase (Saccharomyces cerevisiae S288c) (UniProt P53341+P38158+P07265); test: Inhibition of Saccharomyces cerevisiae Alpha-glucosidase at 1 mM incubated for 10 mins by absorbance based microplate spectrophotometric analysis; format: protein assay
Aspergillus niger = test: Potency index, ratio of miglitol Ki to test compound Ki for inhibition of Aspergillus niger Alpha-glucosidase incubated for 10 mins by Lineweaver-Burk plot analysis
Mus musculus [2] = test: Hypoglycemic activity in C57BL/6J mouse assessed as molar reduction in PBG level at 1.6 mg/kg, po co-administered with maltose and measured after 30 mins by glucometer relative to control; format: functional; design: scale not given: the % may be the effect or the level left; details: 0.5 h
Mus musculus [3] = test: Hypoglycemic activity in C57BL/6J mouse assessed as blood glucose level at 0.8 mg/kg, po co-administered with maltose and measured after 15 mins by glucometer (380.8 +/- 20.6 mg/dl); format: functional; details: 0.25 h
Mus musculus [4] = test: Hypoglycemic activity in C57BL/6J mouse assessed as blood glucose level at 1.6 mg/kg, po co-administered with maltose and measured after 15 mins by glucometer (380.8 +/- 20.6 mg/dL); format: functional; details: 0.25 h
Mus musculus [5] = test: Hypoglycemic activity in C57BL/6J mouse assessed as blood glucose level at 0.4 mg/kg, po co-administered with maltose and measured after 30 mins by glucometer (380.8 +/- 20.6 mg/dL); format: functional; details: 0.5 h
Mus musculus [6] = test: Hypoglycemic activity in C57BL/6J mouse assessed as decrease in PBG level at 1.6 mg/kg, po co-administered with maltose and measured after 15 mins by glucometer relative to control; format: functional; design: scale not given: the % may be the effect or the level left; details: 0.25 h
Mus musculus [7] = test: Hypoglycemic activity in C57BL/6J mouse assessed as decrease in PBG level at 0.4 mg/kg, po co-administered with maltose and measured after 30 mins by glucometer relative to control; format: functional; design: scale not given: the % may be the effect or the level left; details: 0.5 h
Mus musculus [8] = test: Hypoglycemic activity in C57BL/6J mouse assessed as decrease in PBG level at 0.8 mg/kg, po co-administered with maltose and measured after 30 mins by glucometer relative to control; format: functional; design: scale not given: the % may be the effect or the level left; details: 0.5 h
Mus musculus [9] = test: Hypoglycemic activity in C57BL/6J mouse assessed as decrease in PBG level at 1.6 mg/kg, po co-administered with maltose and measured after 30 mins by glucometer relative to control; format: functional; design: scale not given: the % may be the effect or the level left; details: 0.5 h
Mus musculus [10] = test: Relative hypoglycemic rate in C57BL/6J mouse assessed as molar reduction in PBG level by measuring fold change at 1.6 mg/kg, po co-administered with maltose and measured after 30 mins by glucometer relative to miglitol; format: functional; details: 0.5 h
Mus musculus [11] = test: Hypoglycemic activity in C57BL/6J mouse assessed as reduction in PBG level measured per DNJ unit at 0.8 mg/kg, po co-administered with maltose and measured at 15 to 30 mins by glucometer relative to control; format: functional; design: scale not given: the % may be the effect or the level left; details: time 15-30 min
Mus musculus [12] = test: Hypoglycemic activity in C57BL/6J mouse assessed as reduction in PBG level measured per DNJ unit at 1.6 mg/kg, po co-administered with maltose and measured at 15 to 30 mins by glucometer relative to control; format: functional; design: scale not given: the % may be the effect or the level left; details: time 15-30 min
[13] = Toxicity in C57BL/6J mouse assessed as effect on liver morphology at 1.6 mg/kg, po co-administered with maltose for 7 days by Hematoxylin and eosin staining based analysis; format: organism-based; details: in vivo, 168 h, time 7 day
[14] = Toxicity in C57BL/6J mouse assessed as effect on spleen morphology at 1.6 mg/kg, po co-administered with maltose for 7 days by Hematoxylin and eosin staining based analysis; format: organism-based; details: in vivo, 168 h, time 7 day
[15] = Toxicity in C57BL/6J mouse assessed as effect on kidney morphology at 1.6 mg/kg, po co-administered with maltose for 7 days by Hematoxylin and eosin staining based analysis; format: organism-based; details: in vivo, 168 h, time 7 day
Mus musculus [16] = test: Hypoglycemic activity in KKAy diabetic mouse model assessed as blood glucose level at 1.6 mg/kg, po co-administered with maltose and measured after 120 mins by glucometer (reference value: 582.6 +/- 22.9 mg/dl); format: functional; details: 2 h
Mus musculus [17] = test: Hypoglycemic activity in KKAy diabetic mouse model assessed as decrease in PBG level at 1.6 mg/kg, po co-administered with maltose and measured after 30 mins by glucometer relative to control; format: functional; design: scale not given: the % may be the effect or the level left; details: 0.5 h
Mus musculus [18] = test: Hypoglycemic activity in KKAy diabetic mouse model assessed as decrease in PBG level at 1.6 mg/kg, po co-administered with maltose and measured after 60 mins by glucometer relative to control; format: functional; design: scale not given: the % may be the effect or the level left; details: 1 h
Mus musculus [19] = test: Hypoglycemic activity in KKAy diabetic mouse model assessed as decrease in PBG level at 1.6 mg/kg, po co-administered with maltose and measured after 120 mins by glucometer relative to control; format: functional; design: scale not given: the % may be the effect or the level left; details: 2 h
Mus musculus [20] = test: Relative hypoglycemic rate in KKAy diabetic mouse model assessed as reduction in PBG level by measuring fold change at 1.6 mg/kg, po co-administered with maltose and measured after 30 mins by glucometer relative to miglitol; format: functional; details: 0.5 h
[21] = Self assembly property of compound in citric acid-phosphate buffer at pH 2 to 7 at 1 x 10^-4 M assessed as diameter by dynamic light scattering spectrometric analysis; format: physicochemical; details: pH 2, 100 µM, dose 1 10^-4M
[22] = Self assembly property of the compound assessed as diameter at 1 x 10^-4 mol/L by dynamic light scattering spectrometric analysis; format: physicochemical; details: 100 µM; dose 1 10^-4mol/L
[23] = Self assembly property of compound assessed as Nilered-compound complex formation by measuring increase in fluorescence intensity by Nile red dye based fluorescence analysis; format: physicochemical
Mus musculus [24] = test: Binding affinity to mouse alpha-glucosidase assessed as fluorescence intensity at 2 x 10^-4 M administered as Nile red complex by fluorescence spectra analysis (reference value: 3586); details: dose 2.0 10^-4M
[25] = Binding affinity to mouse alpha-glucosidase assessed as binding constant administered as Nile red complex by fluorescence spectra analysis
Mus musculus [26] = test: Binding affinity to mouse alpha-glucosidase assessed as DNJ fluorescence intensity at 2 x 10^-4 M administered as Nile red complex in presence of DNJ by fluorescence spectra analysis (reference value: 1627); details: dose 2.0 10^-4M
[27] = Binding affinity to mouse alpha-glucosidase assessed as DNJ binding constant at 2 x 10^-4 M administered as Nile red complex in presence of DNJ by fluorescence spectra analysis
[28] = Binding affinity to mouse alpha-glucosidase assessed as miglitol binding constant at 200 uM administered as Nile red complex in presence of miglitol by fluorescence spectra analysis
[29] = Stability of compound in simulated gastric fluid assessed as fluorescence intensity at 2 x 10^-4 M administered as Nile red complex by fluorescence spectra analysis (reference value: 3548); format: ADME; details: simulated gi fluid, 200 µM; dose 2 10^-4M
[30] = Drug uptake in C57/6J mouse small intestine assessed as increase in fluorescence at 5 x 10^-5M, po administered as Nile red complex and measured upto 2 hrs by fluorescence imaging analysis; format: ADME, organism-based; details: in vivo, dose 5 10^-5M
[31] = Drug uptake in C57/6J mouse heart assessed as increase in fluorescence at 5 x 10^-5M, po administered as Nile red complex and measured after 4 hrs by fluorescence imaging analysis; format: ADME, organism-based; details: in vivo, dose 5 10^-5M
[32] = Drug uptake in C57/6J mouse lung assessed as increase in fluorescence at 5 x 10^-5M, po administered as Nile red complex and measured after 4 hrs by fluorescence imaging analysis; format: ADME, organism-based; details: in vivo, dose 5 10^-5M

SMILES: CCCCCCCCCCCCCCCCCCNC(=O)CN(Cc1cn(CCCCCCN2C[C@H](O)[C@@H](O)[C@H](O)[C@H]2CO)nn1)C(=O)CN(Cc1cn(CCCCCCN2C[C@H](O)[C@@H](O)[C@H](O)[C@H]2CO)nn1)C(=O)CN(Cc1cn(CCCCCCN2C[C@H](O)[C@@H](O)[C@H](O)[C@H]2CO)nn1)C(=O)CN(Cc1cn(CCCCCCN2C[C@H](O)[C@@H](O)[C@H](O)[C@H]2CO)nn1)C(C)=O
- inhibition [1]: inactive
- Ratio Ki (Aspergillus niger): 121
- Activity (Mus musculus [2]): 11.5%
- Activity (Mus musculus [3]): 326.5 mg/dL
- Activity (Mus musculus [4]): 302.04 mg/dL
- Activity (Mus musculus [5]): 309.9 mg/dL
- Activity (Mus musculus [6]): 18.8%
- Activity (Mus musculus [7]): 18.6%
- Activity (Mus musculus [8]): 24.5%
- Activity (Mus musculus [9]): 39.5%
- fold change (FC) (Mus musculus [10]): 4
- Activity (Mus musculus [11]): 14.2%
- Activity (Mus musculus [12]): 11.5%
- Activity [13]: Non-Toxic
- Activity [14]: Non-Toxic
- Activity [15]: Non-Toxic
- Activity (Mus musculus [16]): 351 mg/dL
- Activity (Mus musculus [17]): 26.2%
- Activity (Mus musculus [18]): 22.1%
- Activity (Mus musculus [19]): 19.9%
- fold change (FC) (Mus musculus [20]): 3
- Activity [21]: 138 nm
- Activity [22]: 276 nm
- Activity [23]: Dose-Dependent Effect
- Flu intensity (Mus musculus [24]): 1750
- Ka [25]: 5680 M⁻¹
- Flu intensity (Mus musculus [26]): 2300
- Ka [27]: 308 M⁻¹
- Ka [28]: 205 M⁻¹
- Flu intensity [29]: 862
- Drug uptake [30]: Active
- Drug uptake [31]: Not Active
- Drug uptake [32]: Not Active
